The supplement of paper PMC10307832

How the values were obtained:
Test in all cases: relative viability (nuclei count vs DMSO), 5 days (fraction); higher = more cells survive
LXF-289 = tested on: LXF-289
Summary of the method: (§1)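 Relative viability divides the nuclei count in treated wells by that in vehicle wells. Lung cancer cell lines were seeded in 1536-well plates, dosed by pin tool the next day, and fixed and stained after 5 days in one step with final 0.05% Triton X-100, 1% formaldehyde and 1 ug/ml Hoechst. Dosing was a single drug or a fixed anchor-drug dose plus five library-drug doses (not always all listed) in √10 steps, and values are medians of duplicate plates imaged at 4×.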

NCI-H1993 = tested on: NCI-H1993
Summary of the method: as §1

NCI-H1975 = tested on: NCI-H1975
Summary of the method: as §1

EMC-BAC-2 = tested on: EMC-BAC-2
Summary of the method: as §1

NCI-H2023 = tested on: NCI-H2023
Summary of the method: as §1

NCI-H322M = tested on: NCI-H322M
Summary of the method: as §1

HCC-78 = tested on: HCC-78
Summary of the method: as §1

NCI-H1666 = tested on: NCI-H1666
Summary of the method: as §1

NCI-H2085 = tested on: NCI-H2085
Summary of the method: as §1

HCC-15 = tested on: HCC-15
Summary of the method: as §1

HOP-62 = tested on: HOP-62
Summary of the method: as §1

CAL-12T = tested on: CAL-12T
Summary of the method: as §1

NCI-H3122 = tested on: NCI-H3122
Summary of the method: as §1

COR-L 105 = tested on: COR-L 105
Summary of the method: as §1

ABC-1 = tested on: ABC-1
Summary of the method: as §1

NCI-H1755 = tested on: NCI-H1755
Summary of the method: as §1

NCI-H358 = tested on: NCI-H358
Summary of the method: as §1

EPLC-272H = tested on: EPLC-272H
Summary of the method: as §1

NCI-H1915 = tested on: NCI-H1915
Summary of the method: as §1

ChaGo-K-1 = tested on: ChaGo-K-1
Summary of the method: as §1

NCI-H441 = tested on: NCI-H441
Summary of the method: as §1

NCI-H2126 = tested on: NCI-H2126
Summary of the method: as §1

UMC-11 = tested on: UMC-11
Summary of the method: as §1

Compound `C[C@@H]1CN(CC(=O)Nc2ccc3c(c2)Cc2cccc(-c4cc(=O)cc(N5CCOCC5)o4)c2S3)C[C@H](C)O1` + COc1cc2c(Oc3ccc(NC(=O)C4(C(=O)Nc5ccc(F)cc5)CC4)cc3F)ccnc2cc1OCCCN1CCOCC1 [Foretinib] (partner 0.25 µM) has a relative viability (LXF-289; first compound 0.04 µM) of 0.993, a relative viability (LXF-289; first compound 0.1265 µM) of 1.01 and a relative viability (LXF-289; first compound 0.4 µM) of 0.985. For the same compound, the relative viability (LXF-289; first compound 4 µM) was 0.936, the relative viability (NCI-H1993; first compound 0.04 µM) was 0.811 and the relative viability (NCI-H1993; first compound 0.1265 µM) was 0.711. It also gave a relative viability (NCI-H1993; first compound 0.4 µM) of 0.646, a relative viability (NCI-H1993; first compound 4 µM) of 0.707 and a relative viability (NCI-H1975; first compound 0.04 µM) of 0.978. The relative viability (NCI-H1975; first compound 0.1265 µM) was 0.782, the relative viability (NCI-H1975; first compound 0.4 µM) was 0.996 and the relative viability (NCI-H1975; first compound 4 µM) was 0.765. For the same compound, the relative viability (EMC-BAC-2; first compound 0.04 µM) was 1.08, the relative viability (EMC-BAC-2; first compound 0.1265 µM) was 1.04 and the relative viability (EMC-BAC-2; first compound 0.4 µM) was 0.998. It also gave a relative viability (EMC-BAC-2; first compound 4 µM) of 0.92, a relative viability (NCI-H2023; first compound 0.04 µM) of 0.732 and a relative viability (NCI-H2023; first compound 0.1265 µM) of 0.915. The relative viability (NCI-H2023; first compound 0.4 µM) was 0.731, the relative viability (NCI-H2023; first compound 4 µM) was 0.666 and the relative viability (NCI-H322M; first compound 0.04 µM) was 0.508. It also gave a relative viability (NCI-H322M; first compound 0.1265 µM) of 0.965, a relative viability (NCI-H322M; first compound 0.4 µM) of 0.979 and a relative viability (NCI-H322M; first compound 4 µM) of 0.874. It also gave a relative viability (HCC-78; first compound 0.04 µM) of 0.554, a relative viability (HCC-78; first compound 0.1265 µM) of 0.579 and a relative viability (HCC-78; first compound 0.4 µM) of 0.513. It also gave a relative viability (HCC-78; first compound 4 µM) of 0.468, a relative viability (NCI-H1666; first compound 0.04 µM) of 0.952 and a relative viability (NCI-H1666; first compound 0.1265 µM) of 0.989. For the same compound, the relative viability (NCI-H1666; first compound 0.4 µM) was 1.05, the relative viability (NCI-H1666; first compound 4 µM) was 0.812 and the relative viability (NCI-H2085; first compound 0.04 µM) was 1.15. For the same compound, the relative viability (NCI-H2085; first compound 0.1265 µM) was 0.83, the relative viability (NCI-H2085; first compound 0.4 µM) was 1.03 and the relative viability (NCI-H2085; first compound 4 µM) was 0.745. For the same compound, the relative viability (HCC-15; first compound 0.04 µM) was 1.05, the relative viability (HCC-15; first compound 0.1265 µM) was 1.06 and the relative viability (HCC-15; first compound 0.4 µM) was 1.02. The relative viability (HCC-15; first compound 4 µM) was 0.73, the relative viability (HOP-62; first compound 0.04 µM) was 0.924 and the relative viability (HOP-62; first compound 0.1265 µM) was 1.08. The relative viability (HOP-62; first compound 0.4 µM) was 1.13, the relative viability (HOP-62; first compound 4 µM) was 0.9 and the relative viability (CAL-12T; first compound 0.04 µM) was 1.13. The relative viability (CAL-12T; first compound 0.1265 µM) was 1.06, the relative viability (CAL-12T; first compound 0.4 µM) was 1.01 and the relative viability (CAL-12T; first compound 4 µM) was 0.764. For the same compound, the relative viability (NCI-H3122; first compound 0.04 µM) was 1.03, the relative viability (NCI-H3122; first compound 0.1265 µM) was 0.902 and the relative viability (NCI-H3122; first compound 0.4 µM) was 0.961. For the same compound, the relative viability (NCI-H3122; first compound 4 µM) was 0.914, the relative viability (COR-L 105; first compound 0.04 µM) was 1.39 and the relative viability (COR-L 105; first compound 0.1265 µM) was 0.971. It also gave a relative viability (COR-L 105; first compound 0.4 µM) of 1.17, a relative viability (COR-L 105; first compound 4 µM) of 0.701 and a relative viability (ABC-1; first compound 0.1265 µM) of 1.11. The relative viability (ABC-1; first compound 0.4 µM) was 1.06, the relative viability (ABC-1; first compound 4 µM) was 0.928 and the relative viability (NCI-H1755; first compound 0.04 µM) was 0.914. It also gave a relative viability (NCI-H1755; first compound 0.1265 µM) of 0.887, a relative viability (NCI-H1755; first compound 0.4 µM) of 0.875 and a relative viability (NCI-H1755; first compound 4 µM) of 0.798. The relative viability (NCI-H358; first compound 0.04 µM) was 0.547, the relative viability (NCI-H358; first compound 0.1265 µM) was 0.677 and the relative viability (NCI-H358; first compound 0.4 µM) was 0.682. It also gave a relative viability (NCI-H358; first compound 4 µM) of 0.4, a relative viability (EPLC-272H; first compound 0.04 µM) of 0.643 and a relative viability (EPLC-272H; first compound 0.1265 µM) of 0.817. For the same compound, the relative viability (EPLC-272H; first compound 0.4 µM) was 0.761, the relative viability (EPLC-272H; first compound 4 µM) was 0.674 and the relative viability (NCI-H1915; first compound 0.04 µM) was 1.06. For the same compound, the relative viability (NCI-H1915; first compound 0.1265 µM) was 1.13, the relative viability (NCI-H1915; first compound 0.4 µM) was 1.03 and the relative viability (NCI-H1915; first compound 4 µM) was 1.05. The relative viability (ChaGo-K-1; first compound 0.04 µM) was 0.793, the relative viability (ChaGo-K-1; first compound 0.1265 µM) was 0.929 and the relative viability (ChaGo-K-1; first compound 0.4 µM) was 0.892. For the same compound, the relative viability (ChaGo-K-1; first compound 4 µM) was 0.825, the relative viability (NCI-H441; first compound 0.04 µM) was 0.925 and the relative viability (NCI-H441; first compound 0.1265 µM) was 0.978. It also gave a relative viability (NCI-H441; first compound 0.4 µM) of 0.911, a relative viability (NCI-H441; first compound 4 µM) of 0.934 and a relative viability (NCI-H2126; first compound 0.04 µM) of 1.17. The relative viability (NCI-H2126; first compound 0.1265 µM) was 1.12, the relative viability (NCI-H2126; first compound 0.4 µM) was 1.12 and the relative viability (NCI-H2126; first compound 4 µM) was 1.02. It also gave a relative viability (UMC-11; first compound 0.04 µM) of 1.1, a relative viability (UMC-11; first compound 0.1265 µM) of 0.995 and a relative viability (UMC-11; first compound 0.4 µM) of 1.1. For the same compound, the relative viability (UMC-11; first compound 4 µM) was 0.746.
